Laboratory results reported in patent US20220323406A1, “METHODS AND COMPOSITIONS FOR DIFFERENTIATING STEM CELLS” (Massachusetts Institute of Technology, priority 2019, published 2022).

Tests used:
ENR+CD organoids [1] = test: Primary screen: ATP (CellTiter-Glo 3D, CTG) cell number/viability, 2.5-D 384-well ENR+CD organoids; conditions: primary screen;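 note: compounds given at plating and again on day 3 over a 6-day differentiation from ENR+CV stem-cell-enriched precursors, ATP measured on day 6, plate median as control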
[2] = test system: ENR+CD organoids (ISC to Paneth cell differentiation); test: Secondary (validation) screen: LYZ.S CCh-stimulated lysozyme secretion, 2.5-D 384-well ENR+CD organoids; assay type: cell-based, mouse; conditions: 6-day ENR+CD, vs ENR+CD+DMSO
Description: (§1) Drugs were tested at a narrowed dose range around each treatment's identified optimal dose from the primary screen (4× below, 2× above and below).
(§2) High-throughput screening.
(§3) Secondary lysozyme secretion assay screen. Confirmatory secondary screening with primary hits was performed using the above 384-well plate method. The screen was conducted with 4-plate replicates with a base media of ENR+CD. Media was supplemented with compound at day 0 and day 3 (n=8 well replicates per dose) at four different doses: two-fold above, two-fold below, and four-fold below the optimal final dose for each respective treatment. Additionally, each plate carried a large number of ENR+DMSO or ENR+CD+DMSO (vehicle) control wells (n=100 for ATP, and n=25 for LYZ.NS and LYZ.S) for robust normalization. ATP, non-stimulated lysozyme activity and CCh-stimulated lysozyme activity was again measured and the collected data was again processed in a custom R-script, per primary screen with slight modification. Values were log10 transformed, and a plate-wise FC was calculated for each well based on the median value of ENR+CD+DMSO (vehicle) control wells to normalize plate to plate variability.

[3] = test system: ENR+CD organoids (ISC to Paneth cell differentiation); test: Primary screen: basal (non-stimulated) lysozyme secretion LYZ.NS, 2.5-D 384-well ENR+CD organoid differentiation; assay type: cell-based, mouse; conditions: for Dose.FC.LYZ.NS / Z.LYZ.NS (standard z score) / Z.LYZ.NS: primary screen; for Z.LYZ.NS: standard z score
Source text: as §2

[4] = test system: ENR+CD organoids (ISC to Paneth cell differentiation); test: Secondary (validation) screen: LYZ.NS basal lysozyme secretion, 2.5-D 384-well ENR+CD organoids; assay type: cell-based, mouse; conditions: 6-day ENR+CD, vs ENR+CD+DMSO
Description: as §1, §2, §3

[5] = test system: ENR+CD organoids (ISC to Paneth cell differentiation); test: Primary screen: CCh-stimulated lysozyme secretion LYZ.S, 2.5-D 384-well ENR+CD organoid differentiation; assay type: cell-based, mouse; conditions: primary screen
Source text: as §2

ENR+CD organoids [6] = test: Secondary (validation) screen: ATP (CTG) assay, 2.5-D 384-well ENR+CD organoids; assay type: cell-based, mouse; conditions: 6-day ENR+CD, vs ENR+CD+DMSO
Description: as §1, §2, §3

[7] = dose 0.08 uM, FC relative to plate median
[8] = dose 0.40 uM, FC relative to plate median
[9] = dose 2.00 uM, FC relative to plate median
[10] = dose 10.00 uM, FC relative to plate median

**Q.** What does the source list for `COc1cc(Nc2c(C#N)cnc3cc(OCCCN4CCN(C)CC4)c(OC)cc23)c(Cl)cc1Cl` [Bosutinib (SKI-606), Bosutinib, reference compound]?
**A.** Dose.FC.CTG (ENR+CD organoids [1]; dose 0.08 uM): 0.628 log2 fold change; Dose.FC.CTG (ENR+CD organoids [1]; dose 0.40 uM): 0.302 log2 fold change; Dose.FC.CTG (ENR+CD organoids [1]; dose 2.00 uM): −0.169 log2 fold change; Dose.FC.CTG (ENR+CD organoids [1]; dose 10.00 uM): −0.668 log2 fold change; Dose.FC.LYZ.S ([2]; 0.02 uM): 0.103 log2 fold change; Dose.FC.LYZ.S ([2]; 0.04 uM): −0.086 log2 fold change; Dose.FC.LYZ.S ([2]; 0.08 uM): −0.072 log2 fold change; Dose.FC.LYZ.S ([2]; […]): 0.007 log2 fold change; Dose.FC.LYZ.NS ([3]; dose 0.08 uM): 0.213 log2 fold change; Z.LYZ.NS (standard z score) ([3]; dose 0.08 uM): 1.858; Dose.FC.LYZ.NS ([3]; dose 0.40 uM): 0.130 log2 fold change; Z.LYZ.NS (standard z score) ([3]; dose 0.40 uM): 1.129; Dose.FC.LYZ.NS ([3]; dose 2.00 uM): −0.049 log2 fold change; Z.LYZ.NS (standard z score) ([3]; dose 2.00 uM): −0.425; Dose.FC.LYZ.NS ([3]; dose 10.00 uM): −0.115 log2 fold change; Z.LYZ.NS (standard z score) ([3]; dose 10.00 uM): −1.005; Dose.FC.LYZ.NS ([4]; 0.02 uM): 0.133 log2 fold change; Dose.FC.LYZ.NS ([4]; 0.04 uM): −0.067 log2 fold change; Dose.FC.LYZ.NS ([4]; 0.08 uM): −0.070 log2 fold change; Dose.FC.LYZ.NS ([4]; […]): 0.068 log2 fold change; Dose.FC.LYZ.S ([5]; dose 0.08 uM): 0.308 log2 fold change; Dose.FC.LYZ.S ([5]; dose 0.40 uM): 0.208 log2 fold change; Dose.FC.LYZ.S ([5]; dose 2.00 uM): −0.058 log2 fold change; Dose.FC.LYZ.S ([5]; dose 10.00 uM): −0.223 log2 fold change; Dose.FC.CTG (ENR+CD organoids [6]; 0.02 uM): 0.216 log2 fold change; Dose.FC.CTG (ENR+CD organoids [6]; 0.04 uM): 0.139 log2 fold change; Dose.FC.CTG (ENR+CD organoids [6]; 0.08 uM): 0.082 log2 fold change; Dose.FC.CTG (ENR+CD organoids [6]; […]): 0.128 log2 fold change

**Q.** What does the source list for `COc1ccc(C2CNC(=O)C2)cc1OC1CCCC1` (stereo not drawn) [Rolipram, reference compound]?
**A.** Dose.FC.CTG (ENR+CD organoids [1]; [7]): 0.356 log2 fold change; Dose.FC.CTG (ENR+CD organoids [1]; [8]): 0.155 log2 fold change; Dose.FC.CTG (ENR+CD organoids [1]; [9]): 0.396 log2 fold change; Dose.FC.CTG (ENR+CD organoids [1]; [10]): 0.299 log2 fold change; Dose.FC.LYZ.S ([2]; 0.50 uM): −0.082 log2 fold change; Dose.FC.LYZ.S ([2]; 1.00 uM): 0.104 log2 fold change; Dose.FC.LYZ.S ([2]; 2.00 uM): 0.030 log2 fold change; Dose.FC.LYZ.S ([2]; 4.00 uM): −0.071 log2 fold change; primary screen hit call (SSMD and z-scored FC cutoffs in both LYZ assays) ([3]; LYZ.NS and LYZ.S, 0.08-10 uM, 6 days ENR+CD): sole hit in their respective pathway; Dose.FC.LYZ.NS [3, 7]: 0.406 log2 fold change; Z.LYZ.NS ([3]; dose 0.08 uM): 3.532; Dose.FC.LYZ.NS [3, 8]: 0.063 log2 fold change; Z.LYZ.NS ([3]; dose 0.40 uM): 0.545; Dose.FC.LYZ.NS [3, 9]: 0.169 log2 fold change; Z.LYZ.NS ([3]; dose 2.00 uM): 1.470; Dose.FC.LYZ.NS [3, 10]: 0.112 log2 fold change; Z.LYZ.NS ([3]; dose 10.00 uM): 0.975; Dose.FC.LYZ.NS ([4]; 0.50 uM): −0.043 log2 fold change; Dose.FC.LYZ.NS ([4]; 1.00 uM): 0.152 log2 fold change; Dose.FC.LYZ.NS ([4]; 2.00 uM): 0.099 log2 fold change; Dose.FC.LYZ.NS ([4]; 4.00 uM): −0.051 log2 fold change; Dose.FC.LYZ.S [5, 7]: 0.239 log2 fold change; Dose.FC.LYZ.S [5, 8]: 0.156 log2 fold change; Dose.FC.LYZ.S [5, 9]: 0.337 log2 fold change; Dose.FC.LYZ.S [5, 10]: 0.223 log2 fold change; Dose.FC.CTG (ENR+CD organoids [6]; 0.50 uM): 0.053 log2 fold change; Dose.FC.CTG (ENR+CD organoids [6]; 1.00 uM): 0.133 log2 fold change; Dose.FC.CTG (ENR+CD organoids [6]; 2.00 uM): 0.202 log2 fold change; Dose.FC.CTG (ENR+CD organoids [6]; 4.00 uM): 0.065 log2 fold change
